One series deals with RIPK3 (Mus musculus, UniProt Q9QZL0). Description: KiNativ chemoproteomic kinase profiling in mouse heart lysate. The class given is binding. Particulars: read-out: % inhibition of RIPK3.
A further series concerns the target FYN (Mus musculus, UniProt P39688). The description is as above. The class given is binding. The conditions noted are these: read-out: % inhibition of FYN.
The subject of a further series is BTK^xid mice. Particulars: 25 mg·kg−1·d−1 IP for 4 weeks, vs vehicle.
For another series, the target named is CSK (Mus musculus, UniProt P41241). Description: KiNativ chemoproteomic kinase profiling in mouse heart lysate. The class given is binding.
In a further series the target is T1, MEK5 (Mus musculus, UniProt Q9WVS7).
T1 sequence (Q9WVS7 1-448): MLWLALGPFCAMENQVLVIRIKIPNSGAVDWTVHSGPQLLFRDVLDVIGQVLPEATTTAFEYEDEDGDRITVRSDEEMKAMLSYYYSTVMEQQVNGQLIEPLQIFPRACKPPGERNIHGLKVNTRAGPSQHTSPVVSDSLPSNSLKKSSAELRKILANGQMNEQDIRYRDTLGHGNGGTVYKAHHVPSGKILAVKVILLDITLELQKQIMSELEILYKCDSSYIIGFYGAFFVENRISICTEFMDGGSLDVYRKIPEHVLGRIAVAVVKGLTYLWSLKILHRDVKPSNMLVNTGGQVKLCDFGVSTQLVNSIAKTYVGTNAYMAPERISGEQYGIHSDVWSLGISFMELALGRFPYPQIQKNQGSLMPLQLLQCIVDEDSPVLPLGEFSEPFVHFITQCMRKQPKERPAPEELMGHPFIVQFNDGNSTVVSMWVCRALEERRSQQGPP
Described as above. It is filed as binding. Particulars: read-out: % inhibition of MEK5.

The next series deals with C57BL/6J mice. The series can be described thus: In vivo electrophysiology study, AF induced by burst pacing. The conditions noted are these: for AF inducibility: 25 mg·kg−1·d−1 IP for 4 weeks (28 days). Set-up: species or system mouse.
The next series has as its system TNFα. Description: Plasma cytokine measurement. The class given is in vivo, mouse. The conditions noted are these: 25 mg/kg daily for 4 weeks, C57BL/6J mice, vs vehicle.
In series [1] the test system is Fn1, Col1a1, and Col3a1 mRNA. The series can be described thus: Quantitative real-time PCR of fibrosis markers in LA tissue. It is filed as in vivo, mouse. Particulars: 25 mg/kg daily for 4 weeks, C57BL/6J mice. (In qPCR the cycle at which signal appears reflects the starting amount.)
Another series deals with IL-6. Description: Plasma cytokine measurement. The class given is in vivo, mouse. Particulars: 25 mg/kg daily for 4 weeks, C57BL/6J mice, vs vehicle.
The test system of the next series is mice. Description: Echocardiography and cardiac MRI of cardiac structure. It is filed as in vivo, mouse.
The next series concerns the target BTK (Mus musculus, UniProt P35991). Description: KiNativ chemoproteomic kinase profiling in mouse heart lysate. It is filed as binding. The conditions noted are these: read-out: % inhibition of BTK.
Setting [2] is: 25 mg/kg daily for 4 weeks, C57BL/6J mice, vs vehicle.

Chain of RIPK3 (Q9QZL0 whole entry): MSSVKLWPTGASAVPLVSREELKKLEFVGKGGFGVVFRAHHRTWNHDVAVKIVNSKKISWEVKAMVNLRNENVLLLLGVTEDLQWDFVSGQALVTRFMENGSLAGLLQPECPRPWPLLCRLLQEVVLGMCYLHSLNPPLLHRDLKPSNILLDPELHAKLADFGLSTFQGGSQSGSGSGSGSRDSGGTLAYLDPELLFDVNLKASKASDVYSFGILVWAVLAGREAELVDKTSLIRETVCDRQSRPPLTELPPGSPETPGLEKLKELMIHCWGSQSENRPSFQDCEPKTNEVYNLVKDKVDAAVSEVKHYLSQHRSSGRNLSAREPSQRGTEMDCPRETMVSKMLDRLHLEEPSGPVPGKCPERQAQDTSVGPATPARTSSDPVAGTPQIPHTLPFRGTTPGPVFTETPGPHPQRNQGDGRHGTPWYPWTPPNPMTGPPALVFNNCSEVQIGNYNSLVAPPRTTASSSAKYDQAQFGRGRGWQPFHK
Chain of CSK (P41241 whole entry): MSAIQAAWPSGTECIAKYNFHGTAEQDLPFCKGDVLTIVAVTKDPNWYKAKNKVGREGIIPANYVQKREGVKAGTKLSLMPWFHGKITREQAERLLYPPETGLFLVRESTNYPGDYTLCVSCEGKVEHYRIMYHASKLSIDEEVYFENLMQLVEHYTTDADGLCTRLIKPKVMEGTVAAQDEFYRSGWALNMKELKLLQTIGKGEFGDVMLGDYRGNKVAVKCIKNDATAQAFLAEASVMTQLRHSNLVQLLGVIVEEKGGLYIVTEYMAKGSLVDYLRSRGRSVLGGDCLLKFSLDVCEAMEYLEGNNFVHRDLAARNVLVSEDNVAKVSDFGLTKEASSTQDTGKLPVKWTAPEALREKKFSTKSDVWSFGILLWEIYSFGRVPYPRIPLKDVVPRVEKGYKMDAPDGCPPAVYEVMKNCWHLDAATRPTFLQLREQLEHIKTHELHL
Chain of BTK (P35991 whole entry): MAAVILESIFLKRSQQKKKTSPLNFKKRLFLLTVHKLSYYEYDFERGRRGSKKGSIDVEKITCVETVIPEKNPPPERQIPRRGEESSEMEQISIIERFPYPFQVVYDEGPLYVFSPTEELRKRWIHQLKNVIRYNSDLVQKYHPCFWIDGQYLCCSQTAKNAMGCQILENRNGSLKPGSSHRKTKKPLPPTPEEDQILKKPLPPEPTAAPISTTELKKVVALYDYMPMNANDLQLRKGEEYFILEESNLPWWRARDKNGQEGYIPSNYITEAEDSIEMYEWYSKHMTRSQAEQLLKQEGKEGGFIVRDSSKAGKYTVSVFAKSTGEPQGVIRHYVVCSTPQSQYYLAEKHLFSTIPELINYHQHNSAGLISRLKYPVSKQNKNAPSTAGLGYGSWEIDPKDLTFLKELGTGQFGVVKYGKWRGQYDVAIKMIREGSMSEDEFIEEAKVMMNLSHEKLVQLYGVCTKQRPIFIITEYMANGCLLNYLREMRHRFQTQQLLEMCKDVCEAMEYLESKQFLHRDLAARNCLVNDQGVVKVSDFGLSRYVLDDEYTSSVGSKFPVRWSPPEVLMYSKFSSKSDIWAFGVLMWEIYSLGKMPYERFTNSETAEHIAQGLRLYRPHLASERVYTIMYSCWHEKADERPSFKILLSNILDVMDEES
Chain of FYN (P39688 whole entry): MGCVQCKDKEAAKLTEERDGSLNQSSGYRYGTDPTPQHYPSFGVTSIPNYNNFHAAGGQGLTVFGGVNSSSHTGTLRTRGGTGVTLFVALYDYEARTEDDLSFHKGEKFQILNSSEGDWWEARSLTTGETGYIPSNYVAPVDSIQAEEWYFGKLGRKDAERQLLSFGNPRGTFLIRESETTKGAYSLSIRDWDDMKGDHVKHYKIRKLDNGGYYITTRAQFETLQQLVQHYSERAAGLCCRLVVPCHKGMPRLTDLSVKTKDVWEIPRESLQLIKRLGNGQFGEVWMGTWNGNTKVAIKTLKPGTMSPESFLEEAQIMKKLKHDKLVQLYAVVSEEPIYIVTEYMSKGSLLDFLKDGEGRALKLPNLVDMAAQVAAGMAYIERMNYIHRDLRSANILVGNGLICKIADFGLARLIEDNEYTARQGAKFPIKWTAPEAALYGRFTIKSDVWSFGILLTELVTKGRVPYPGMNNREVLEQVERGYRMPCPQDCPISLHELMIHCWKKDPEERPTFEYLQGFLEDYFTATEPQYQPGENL

Take `C=CC(=O)N1CCC[C@@H](n2nc(-c3ccc(Oc4ccccc4)cc3)c3c(N)ncnc32)C1` [ibrutinib]: the inhibition at 10 µM at RIPK3, on FYN, on CSK (read-out: % inhibition of CSK) and on MEK5 was over 90% throughout. Further, the AF inducibility result was “significant increase in AF inducibility” in the series with BTK^xid mice and “more inducible atrial fibrillation than vehicle injected mice” in the series with C57BL/6J mice (C57BL/6J mice, vs vehicle). The “atrial effective refractory periods” value with C57BL/6J mice (setting [2]) is given as “prolonged”. Also, the “inducible AF” value with C57BL/6J mice (short duration exposure, mice) is on record as “did not result in increased inducible AF”. For the same compound, the “circulating tumor necrosis factor α (TNFα)” value in the series on TNFα is recorded as “elevated”. Besides, in series [1], the “expression of fibrosis markers fibronectin, and collagens 1α1 and 3α1” value was “increased expression”. In addition, in the series with IL-6, the “circulating interleukin-6 (IL-6)” value is “elevated”. For the same compound, the “left ventricular ejection fraction” value in the series with mice (25 mg/kg daily for 4 weeks, C57BL/6J mice, MRI) is given as “preserved”. In addition, the “atrial dilation (LA size)” value in the series on mice (setting [2]) is recorded as “significant atrial dilation”. Further, the “LA enlargement (LA diameter by echocardiography)” value with mice (BTK^xid mice, 25 mg·kg−1·d−1 IP for 4 weeks) is “LA enlargement”.

Take `CC#CC(=O)N1CCC[C@H]1c1nc(-c2ccc(C(=O)Nc3ccccn3)cc2)c2c(N)nccn12` [acalabrutinib]: the inhibition at 10 µM on RIPK3 and on BTK was over 90% throughout. Further, the “% inhibition of CSK” value on CSK (10 μM, 15 minutes, mouse heart lysate, ATP probe 20 μmol/L) was “do not inhibit CSK”. In addition, the AF inducibility entry in the series on C57BL/6J mice (C57BL/6J mice, vs vehicle) is reported as “did not cause AF”.

Consider `CN1CCN(CCOc2cc(OC3CCOCC3)c3c(Nc4c(Cl)ccc5c4OCO5)ncnc3c2)CC1` [saracatinib], for which the AF inducibility entry with C57BL/6J mice (C57BL/6J mice, vs vehicle) is “did not result in increased AF”.

`CN(C)Cc1cccc(N/C(=C2\C(=O)Nc3cc(C(N)=O)ccc32)c2ccccc2)c1` [BIX-02188]: the AF inducibility result in the series on C57BL/6J mice (C57BL/6J mice, vs vehicle) was “did not lead to an increase in AF inducibility”.
